Laboratory results from publication PMC11466185, “Mechanisms and efficacy of small molecule latency-promoting agents to inhibit HIV reactivation ex vivo” (JCI Insight, 2024).

System: PolyA HIV RNA in the supernatant
Assay: Supernatant viral RNA (polyadenylated HIV RNA, RT-ddPCR) at day 6 after T cell activation
Type: cell-based
Conditions: for Viral RNA in supernatant (PolyA HIV RNA), median relative to activated DMSO: day 6 after anti-CD3/CD28 activation, Figure 5; for Polyadenylated HIV RNA in supernatant (Fig 5, Fig S6B): study participant 150b; for Polyadenylated HIV RNA in supernatant (Fig 5, Fig S6B) / Polyadenylated HIV RNA in supernatant (Fig 5): day 6
Protocol: PBMCs were cultured in the presence of individual drugs in DMSO or DMSO alone as control, activated (anti-CD3/CD28), and assessed for levels of PolyA HIV RNA in the supernatant at day 6.
Each drug was tested in PBMCs from 6 ART-suppressed study participants (except for triptolide, n = 5). PBMCs were aliquoted into wells at 6 × 10^6 cells/well. After activation, the cells were cultured with antiretrovirals in the presence of individual drugs in DMSO or DMSO alone as control. All conditions were tested in the presence of CD3/28 T cell–activating beads, except for the unactivated DMSO condition. After 6 days, RNA was extracted from the culture supernatant. Polyadenylated HIV RNA in the supernatant was quantified by RT-ddPCR, expressed as copies/mL, and then normalized to the levels of the activated DMSO (% of activated DMSO). Medians and IQR are presented, as well as the individual values per study participant in different colors. Comparisons were performed using Wilcoxon’s signed-rank test.
For quantification of cell-associated HIV transcripts, PBMCs were harvested either after 24 hours or after 6 days. The cell viabilities were measured by trypan blue staining; then the cells were pelleted by centrifuging at 300g for 6 minutes and stored at –80°C. For quantification of virion-associated HIV RNA, cell culture supernatant was collected from 6 × 10^6 PBMCs that were treated and activated for 6 days as described above. Residual cells and cellular debris were subsequently removed from the supernatant by differential centrifugation (300g for 6 minutes, then 20,000g for 10 minutes), and the supernatant was stored at –80°C.
Total cellular DNA and RNA were extracted in parallel using Trireagent (Molecular Research Center) according to the manufacturer’s instructions, except for study participants 2147 and 2461 (Figure 4), for whom DNA and RNA were extracted using the QIAGEN AllPrep DNA/RNA/miRNA Universal Kit with on-column DNase I treatment of the RNA and the manufacturer’s modification to enhance recovery of short transcripts. RNA and DNA concentrations were measured using UV spectrophotometry (NanoDrop One, Thermo Fisher Scientific). Total initiated HIV (TAR) transcripts were quantified by a 3-step polyadenylation RT-ddPCR as described previously ([8], [84]). HIV 5′ elongated (LLTR), midtranscribed (Pol), completed (PolyA), and multiply spliced (TatRev) transcripts were quantified by a 2-step RT-ddPCR as previously described ([8]). The levels of each HIV transcript were normalized to 1 μg of total cellular RNA and expressed as a percentage of the (activated) DMSO control. To quantify virion-associated RNA in supernatant, RNA was extracted from 400 μL supernatant using Trireagent-LS (Molecular Research Center) according to the manufacturer’s instructions. Levels of U3-polyadenylated HIV RNA were measured in the supernatant by RT-ddPCR, normalized to copies/mL, and expressed as a percentage of the activated DMSO. For measuring the HIV infection frequency at day 6, the HIV DNA U3-U5 LTR region was quantified by using ddPCR as described previously ([8]). HIV DNA copies were normalized to cell numbers according to the mass of DNA input per well (calculated from the DNA concentration and input volume) ([85]).

CC(C)[C@]12O[C@H]1[C@@H]1O[C@]13[C@]1(O[C@H]1C[C@H]1C4=C(CC[C@@]13C)C(=O)OC4)[C@@H]2O [triptolide]
Viral RNA in supernatant (PolyA HIV RNA), median relative to activated DMSO: 0.0%
Polyadenylated HIV RNA in supernatant (Fig 5, Fig S6B): 0 % of activated DMSO
Polyadenylated HIV RNA in supernatant (Fig 5) (study participant 2147b): 0 % of activated DMSO
Polyadenylated HIV RNA in supernatant (Fig 5) (study participant 2256): 2.15 % of activated DMSO
Polyadenylated HIV RNA in supernatant (Fig 5) (study participant 2750): 0 % of activated DMSO
Polyadenylated HIV RNA in supernatant (Fig 5) (study participant 5557): 0 % of activated DMSO

N#CC[C@H](C1CCCC1)n1cc(-c2ncnc3[nH]ccc23)cn1 [ruxolitinib]
Polyadenylated HIV RNA in supernatant (Fig 5) (study participant 150a): 6.55 % of activated DMSO
Polyadenylated HIV RNA in supernatant (Fig 5) (study participant 156): 0 % of activated DMSO
Polyadenylated HIV RNA in supernatant (Fig 5) (study participant 163): 0.53 % of activated DMSO
Polyadenylated HIV RNA in supernatant (Fig 5) (study participant 2027): 0 % of activated DMSO
Polyadenylated HIV RNA in supernatant (Fig 5) (study participant 2147b): 0 % of activated DMSO
Polyadenylated HIV RNA in supernatant (Fig 5) (study participant 2161): 5.81 % of activated DMSO
Polyadenylated HIV RNA in supernatant (Fig 5) (study participant 2747): 0 % of activated DMSO
Polyadenylated HIV RNA in supernatant (Fig 5) (study participant 2750): 0 % of activated DMSO

CC(=O)N[C@@H]1CCC[C@H](C(=O)Nc2cc(-c3cnn4c3CC(C)(C)C4)c(Cl)cn2)C1 [AZD4573]
Viral RNA in supernatant (PolyA HIV RNA), median relative to activated DMSO: 1.9%
Polyadenylated HIV RNA in supernatant (Fig 5) (study participant 150a): 27.84 % of activated DMSO
Polyadenylated HIV RNA in supernatant (Fig 5) (study participant 156): 3.19 % of activated DMSO
Polyadenylated HIV RNA in supernatant (Fig 5) (study participant 163): 90.51 % of activated DMSO
Polyadenylated HIV RNA in supernatant (Fig 5) (study participant 2027): 0 % of activated DMSO
Polyadenylated HIV RNA in supernatant (Fig 5) (study participant 2147b): 0.7 % of activated DMSO
Polyadenylated HIV RNA in supernatant (Fig 5) (study participant 2161): 0 % of activated DMSO
Polyadenylated HIV RNA in supernatant (Fig 5) (study participant 2747): 17.73 % of activated DMSO
Polyadenylated HIV RNA in supernatant (Fig 5) (study participant 2750): 0 % of activated DMSO

COc1ccc(-c2cc(=O)c3c(O)cc(O)c(-c4cc(-c5cc(=O)c6c(O)cc(O)cc6o5)ccc4OC)c3o2)cc1 [isoginkgetin]
Polyadenylated HIV RNA in supernatant (Fig 5, Fig S6B): 303.03 % of activated DMSO
Polyadenylated HIV RNA in supernatant (Fig 5) (study participant 2027): 8.41 % of activated DMSO
Polyadenylated HIV RNA in supernatant (Fig 5) (study participant 2147b): 63.16 % of activated DMSO
Polyadenylated HIV RNA in supernatant (Fig 5) (study participant 2161): 0 % of activated DMSO
Polyadenylated HIV RNA in supernatant (Fig 5) (study participant 2256): 4.84 % of activated DMSO
Polyadenylated HIV RNA in supernatant (Fig 5) (study participant 5557): 39.4 % of activated DMSO

CO[C@H]([C@@H](C)[C@H]1O[C@]1(C)C[C@H](C)/C=C/C=C(\C)[C@H]1O[C@@H](CC(=O)O)CC[C@@H]1C)[C@@H](C)O [herboxidiene]
Viral RNA in supernatant (PolyA HIV RNA), median relative to activated DMSO: tended to reduce
Polyadenylated HIV RNA in supernatant (Fig 5, Fig S6B): 67.27 % of activated DMSO
Polyadenylated HIV RNA in supernatant (Fig 5) (study participant 2027): 240.24 % of activated DMSO
Polyadenylated HIV RNA in supernatant (Fig 5) (study participant 2147b): 0 % of activated DMSO
Polyadenylated HIV RNA in supernatant (Fig 5) (study participant 2161): 4.65 % of activated DMSO
Polyadenylated HIV RNA in supernatant (Fig 5) (study participant 2256): 1.61 % of activated DMSO
Polyadenylated HIV RNA in supernatant (Fig 5) (study participant 5557): 42.05 % of activated DMSO

CNc1ccc([N+](=O)[O-])c(Nc2ccc3[nH]ncc3c2)n1 [KRIBB11]
Viral RNA in supernatant (PolyA HIV RNA), median relative to activated DMSO: did not inhibit
Polyadenylated HIV RNA in supernatant (Fig 5) (study participant 150a): 72.41 % of activated DMSO
Polyadenylated HIV RNA in supernatant (Fig 5) (study participant 156): 18.79 % of activated DMSO
Polyadenylated HIV RNA in supernatant (Fig 5) (study participant 163): 90.15 % of activated DMSO
Polyadenylated HIV RNA in supernatant (Fig 5) (study participant 2027): 444.44 % of activated DMSO
Polyadenylated HIV RNA in supernatant (Fig 5) (study participant 2147b): 47.37 % of activated DMSO
Polyadenylated HIV RNA in supernatant (Fig 5) (study participant 2256): 93.55 % of activated DMSO
Polyadenylated HIV RNA in supernatant (Fig 5) (study participant 2747): 72.27 % of activated DMSO
